This note sets out measurements from patent US7763584B2, “Hepatitis C virus inhibitors” (priority 2006, dated 2010).

This assay deals with HCV replicon in HUH-7 cells. Briefly: HCV replicon FRET assay (EC50 confirmed in replicon luciferase reporter assay). In kind it is cell-based. The conditions noted are these: Hepatitis C virus, Huh-7, 96 h. The text has this: An HCV replicon whole cell system was established as described by Lohmann V, Korner F, Koch J, Herian U, Theilmann L, Bartenschlager R., Science 285(5424): 110-3 (1999). This system enabled us to evaluate the effects of our HCV Protease compounds on HCV RNA replication. Briefly, using the HCV strain 1b sequence described in the Lohmann paper (Assession number: AJ238799), an HCV cDNA was synthesized by Operon Technologies, Inc. (Alameda, Calif.), and the full-length replicon was then assembled in plasmid pGem9zf(+) (Promega, Madison, Wis.) using standard molecular biology techniques. […]
The HCV replicon FRET assay was developed to monitor the inhibitory effects of compounds described in the disclosure on HCV viral replication. […] After 4 days, cells were first assessed for cytotoxicity using alamar Blue (Trek Diagnotstic Systems) for a CC50 reading. The toxicity of compound (CC50) was determined by adding 1/10th volume of alamar Blue to the media incubating the cells. After 4 h, the fluorescence signal from each well was read, with an excitation wavelength at 530 nm and an emission wavelength of 580 nm, using the Cytofluor Series 4000 (Perspective Biosystems). […]

The molecule `CO[C@@]1(c2ccc(-c3ccccc3)cc2)C[C@H]2C(=O)N[C@]3(C(=O)NS(=O)(=O)C4CC4)C[C@H]3/C=C\CCCCC[C@H](NC(=O)OC(C)(C)C)C(=O)N2C1` [Compound 1, tert-butyl (2R,6S,13aS,14aR,16aS,Z)-2-(biphenyl-4-yl)-14a-(cyclopropylsulfonylcarbamoyl)-2-methoxy-5,16-dioxo-1,2,3,5,6,7,10,11,13a,14,14a,15,16,16a-hexadecahydrocyclopropa[e]pyrrolo[1,2-a][1,4]diazacyclopentadecin-6-ylcarbamate] gave an EC50 of 5 nM.
